Test results from PubChem BioAssay (NCI).
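Results reflect a 48-hour exposure of cells in 96-well plates to compound at five concentrations. TGI: total growth inhibition.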

How the values were obtained:
Experiment in all cases: NCI-60 cell line screen, 48 h
[1] = system: HOP-62 NSCLC
[2] = system: MDA-N
[3] = system: IGROV1 ovarian
[4] = system: SK-MEL-5 melanoma
[5] = system: HT29 colon
[6] = system: SNB-19 CNS
[7] = system: M14 melanoma
[8] = system: CCRF-CEM leukemia
[9] = system: 786-0 renal
[10] = system: SF-295 CNS
[11] = system: MDA-MB-435
[12] = system: SW-620 colon
[13] = system: EKVX NSCLC
[14] = system: MALME-3M melanoma
[15] = system: HCC-2998 colon
[16] = system: SF-268 CNS
[17] = system: DU-145 prostate
[18] = system: NCI-H23 lung
[19] = system: KM12 colon
[20] = system: SK-MEL-28 melanoma
[21] = system: SK-OV-3 ovarian
[22] = system: SNB-75 CNS
[23] = system: OVCAR-8 ovarian
[24] = system: SR leukemia
[25] = system: HCT-116 colon
[26] = system: SN12C renal
[27] = system: MCF7 breast
[28] = system: TK-10 renal
[29] = system: SK-MEL-2 melanoma
[30] = system: NCI-H460 lung
[31] = system: HOP-92 NSCLC
[32] = system: BT-549 breast
[33] = system: UACC-62 melanoma
[34] = system: HCT-15 colon
[35] = system: OVCAR-3 ovarian
[36] = system: A498 renal
[37] = system: RXF 393 renal
[38] = system: UACC-257 melanoma
[39] = system: OVCAR-4 ovarian
[40] = system: U251 CNS
[41] = system: T-47D breast
[42] = system: COLO 205 colon
[43] = system: OVCAR-5 ovarian
[44] = system: MOLT-4 leukemia
[45] = system: NCI-H226 lung
[46] = system: NCI/ADR-RES ovarian
[47] = system: RPMI-8226 leukemia
[48] = system: SF-539 CNS
[49] = system: MDA-MB-231 breast
[50] = system: A549 NSCLC
[51] = system: ACHN renal
[52] = system: HL-60(TB) leukemia
[53] = system: CAKI-1 renal
[54] = system: LOX IMVI melanoma
[55] = system: UO-31 renal
[56] = system: PC-3 prostate
[57] = system: K-562 leukemia
[58] = system: NCI-H522 lung
[59] = system: HS 578T breast

Question: Which results are given for `O=C(NNC(=S)Nc1ccccc1)c1ccccc1Nc1ccccc1C(=O)NNC(=S)Nc1ccccc1`?
Answer: TGI [1]: 60.7 µM; TGI [2]: > 100 µM; TGI [3]: 32.3 µM; TGI [4]: 58.2 µM; TGI [5]: 76.6 µM; TGI [6]: 72.4 µM; TGI [7]: 41.5 µM; TGI [8]: > 100 µM; TGI [9]: 41.5 µM; TGI [10]: 57.6 µM; TGI [11]: > 100 µM; TGI [12]: > 100 µM; TGI [13]: 85.3 µM; TGI [14]: 52.3 µM; TGI [15]: 37.1 µM; TGI [16]: 60.6 µM; TGI [17]: > 100 µM; TGI [18]: 41.5 µM; TGI [19]: > 100 µM; TGI [20]: > 100 µM; TGI [21]: 89.8 µM; TGI [22]: > 100 µM; TGI [23]: 52.2 µM; TGI [24]: > 100 µM; TGI [25]: 35.5 µM; TGI [26]: 57.9 µM; TGI [27]: 83.8 µM; TGI [28]: 68.7 µM; TGI [29]: 47.1 µM; TGI [30]: 49 µM; TGI [31]: 30.5 µM; TGI [32]: 57.7 µM; TGI [33]: 26.9 µM; TGI [34]: > 100 µM; TGI [35]: 38.4 µM; TGI [36]: > 100 µM; TGI [37]: 45.4 µM; TGI [38]: 56.7 µM; TGI [39]: > 100 µM; TGI [40]: 50.7 µM; TGI [41]: > 100 µM; TGI [42]: 41.5 µM; TGI [43]: 33.6 µM; TGI [44]: > 100 µM; TGI [45]: 77.9 µM; TGI [46]: > 100 µM; TGI [47]: > 100 µM; TGI [48]: 59.8 µM; TGI [49]: 61.3 µM; TGI [50]: > 100 µM; TGI [51]: > 100 µM; TGI [52]: > 100 µM; TGI [53]: > 100 µM; TGI [54]: 26 µM; TGI [55]: 44.6 µM; TGI [56]: 64.8 µM; TGI [57]: > 100 µM; TGI [58]: 46 µM; TGI [59]: 74.9 µM
